Laboratory results published in patent US20250172566A1, “SACCHARIDE SENSING SYSTEMS” (CARBOMETRICS LIMITED, priority 2022, published 2025).

Assays:
[1] = Affinity electrochemistry - cyclic voltammetry glucose responsive assay (10 mM PBS, pH 7.4, 298 K); conditions: for Applied potential / Current response: FIM 0.5 mM, reduction process
Procedure: Affinity electrochemistry measurements were made using a Metrohm Autolab PGSTAT101 potentiostat with a BIDSC-FET interface and screen-printed electrodes DRP-200BT. Data collection and analysis were performed using Nova software by Metrohm Autolab. Further analysis and processing were performed in Microsoft Excel. Measurements obtained at 298 K and at pH 7.4 unless otherwise stated.
Separate samples containing a mixture of GBM, FIM and D-glucose at various concentrations in 10 mM PBS were prepared. 50 μL of each sample was pipetted onto the surface of the screen-printed electrode and the cyclic voltammogram acquired using the CV staircase protocol within the Nova software, using the following settings: Start potential at −0.4 V, upper vertex potential at 0.6 V, lower vertex potential at −0.4 V, stop potential at −0.39756 V, number of scans=3, scan rate at 0.1 V/s and Step at 0.00244 V. The data for each voltammogram was exported into Microsoft excel, processed and compared to give the glucose responsive electrochemical results.
Changes in applied potential and current response were monitored using the reduction process observed during the cyclic voltammogram. Measurements obtained at 298 K and pH 7.4 in 10 mM PBS medium.

[2] = Fluorescent solution phase glucose responsive assay (pH 7.4, 298 K); conditions: medium B, Ex 470 nm, Emmax 520 nm
Procedure: Fluorescence spectroscopy was performed on either a HORIBA Duetta or BMG Labtech CLARIOstar plus plate reader. Emission spectra were obtained using the appropriate excitation wavelength and at a temperature of either 298 or 310 K and at pH 7.4 unless otherwise stated. Data collection and analysis were performed using EzSpec software by HORIBA or CLARIOstar MARS software by BMG Labtech. Further analysis and processing were performed in Microsoft Excel.
A solution of GBM and FIM at the required concentrations were created in the appropriate media. The emission spectrum of the assay was then acquired by exciting at the designated excitation wavelength to obtain the baseline emission intensity for the assay. Aliquots of 2 M D-glucose (in the same media) were then added to give the required final glucose concentrations (e.g. 15 μL of 2 M D-glucose in 3 mL gives a final D-glucose concentration of 10 mM) and the assay allowed to reach equilibration. The emission spectra were collected after each addition of D-glucose and compared to the original baseline emission, monitoring at the typical emission maximum (Emmax), and the percentage increase or decrease recorded. Emission spectra acquired on either a Horiba Duetta fluorometer or Clariostar plus plate reader.
The glucose responsive fluorescence emission for different combinations of glucose binding molecules (GBM) and fluorescent inhibitor molecules (FIM) at various concentrations and in various media was tested as described above. All results obtained at pH 7.4 and 298 K unless otherwise stated.
All results obtained at pH 7.4 and 298 K unless otherwise stated.
Table 4 provides the composition of the assay media used as the code assigned to each media as used in Tables 1 to 3.

C#CCCC(=O)NCCCC[C@H](NC(=O)[c-]1cccc1)C(=O)NCCOCCOCCOCCn1cc(-c2ccc(CCO[C@@H]3O[C@H](CO)[C@@H](O)[C@H](O)[C@H]3O)cc2)nn1.[Fe+2].c1cc[cH-]c1 [FIM38]
Applied potential ([1]; 0 mM D-glucose, GBM 0 mM): 0.327 V
Current response ([1]; 0 mM D-glucose, GBM 0 mM): −4.25 ×10^−6 A
Applied potential ([1]; 0 mM D-glucose, GBM15 1 mM): 0.280 V
Current response ([1]; 0 mM D-glucose, GBM15 1 mM): −3.1 ×10^−6 A
Applied potential ([1]; 1 mM D-glucose, GBM15 1 mM): 0.285 V
Current response ([1]; 1 mM D-glucose, GBM15 1 mM): −3.75 ×10^−6 A
Applied potential ([1]; 2 mM D-glucose, GBM15 1 mM): 0.300 V
Current response ([1]; 2 mM D-glucose, GBM15 1 mM): −4.25 ×10^−6 A
Applied potential ([1]; 3 mM D-glucose, GBM15 1 mM): 0.306 V
Current response ([1]; 3 mM D-glucose, GBM15 1 mM): −4.4 ×10^−6 A
Applied potential ([1]; 4 mM D-glucose, GBM15 1 mM): 0.310 V
Current response ([1]; 4 mM D-glucose, GBM15 1 mM): −4.5 ×10^−6 A
Applied potential ([1]; 5 mM D-glucose, GBM15 1 mM): 0.310 V
Current response ([1]; 5 mM D-glucose, GBM15 1 mM): −4.5 ×10^−6 A
Glucose responsive cyclic voltammetry (FIG. 10) ([1]; GBM15 1 mM and FIM38 0.5 mM in 10 mM PBS, addition of D-glucose): shows a shift in both applied potential (V) and current response (A)

CC(C)(C)OC(=O)N[C@@H](Cc1cn(CCCC[C@@H](C(=O)Nc2ccc(CCO[C@@H]3O[C@H](CO)[C@@H](O)[C@H](O)[C@H]3O)cc2)[N+](C)(C)C)nn1)C(=O)NCCOCCOCCOCCn1cc(CNC(=O)c2ccc3c(c2)C(=O)OC32c3ccc(O)cc3Oc3cc(O)ccc32)nn1 [FIM32]
Change in Emmax for FIM at a particular D-glucose concentration ([2]; 5 mM D-glucose, GBM15 10 μM, FIM 1 μM): 170%
Change in Emmax for FIM at a particular D-glucose concentration ([2]; 5 mM D-glucose, GBM15 50 μM, FIM 0.5 μM): 140%
Change in Emmax for FIM at a particular D-glucose concentration ([2]; 5 mM D-glucose, GBM15 50 μM, FIM 5 μM): 110%
Change in Emmax for FIM at a particular D-glucose concentration ([2]; 5 mM D-glucose, GBM15 50 μM, FIM 10 μM): 110%
Change in Emmax for FIM at a particular D-glucose concentration ([2]; 5 mM D-glucose, GBM15 100 μM, FIM 1 μM): 95%
Change in Emmax for FIM at a particular D-glucose concentration ([2]; 5 mM D-glucose, GBM15 200 μM, FIM 2 μM): 85%
Change in Emmax for FIM at a particular D-glucose concentration ([2]; 5 mM D-glucose, GBM15 200 μM, FIM 5 μM): 50%
Change in Emmax for FIM at a particular D-glucose concentration ([2]; 5 mM D-glucose, GBM15 200 μM, FIM 10 μM): 50%
Change in Emmax for FIM at a particular D-glucose concentration ([2]; 10 mM D-glucose, GBM15 10 μM, FIM 1 μM): 190%
Change in Emmax for FIM at a particular D-glucose concentration ([2]; 10 mM D-glucose, GBM15 50 μM, FIM 0.5 μM): 195%
Change in Emmax for FIM at a particular D-glucose concentration ([2]; 10 mM D-glucose, GBM15 50 μM, FIM 5 μM): 155%
Change in Emmax for FIM at a particular D-glucose concentration ([2]; 10 mM D-glucose, GBM15 50 μM, FIM 10 μM): 145%
Change in Emmax for FIM at a particular D-glucose concentration ([2]; 10 mM D-glucose, GBM15 100 μM, FIM 1 μM): 135%
Change in Emmax for FIM at a particular D-glucose concentration ([2]; 10 mM D-glucose, GBM15 200 μM, FIM 2 μM): 115%
Change in Emmax for FIM at a particular D-glucose concentration ([2]; 10 mM D-glucose, GBM15 200 μM, FIM 5 μM): 85%
Change in Emmax for FIM at a particular D-glucose concentration ([2]; 10 mM D-glucose, GBM15 200 μM, FIM 10 μM): 85%
Change in Emmax for FIM at a particular D-glucose concentration ([2]; 20 mM D-glucose, GBM15 10 μM, FIM 1 μM): 200%
Change in Emmax for FIM at a particular D-glucose concentration ([2]; 20 mM D-glucose, GBM15 50 μM, FIM 0.5 μM): 240%
Change in Emmax for FIM at a particular D-glucose concentration ([2]; 20 mM D-glucose, GBM15 50 μM, FIM 5 μM): 185%
Change in Emmax for FIM at a particular D-glucose concentration ([2]; 20 mM D-glucose, GBM15 50 μM, FIM 10 μM): 190%
Change in Emmax for FIM at a particular D-glucose concentration ([2]; 20 mM D-glucose, GBM15 100 μM, FIM 1 μM): 160%
Change in Emmax for FIM at a particular D-glucose concentration ([2]; 20 mM D-glucose, GBM15 200 μM, FIM 2 μM): 145%
Change in Emmax for FIM at a particular D-glucose concentration ([2]; 20 mM D-glucose, GBM15 200 μM, FIM 5 μM): 125%
Change in Emmax for FIM at a particular D-glucose concentration ([2]; 20 mM D-glucose, GBM15 200 μM, FIM 10 μM): 115%
Change in Emmax for FIM at a particular D-glucose concentration ([2]; 40 mM D-glucose, GBM15 10 μM, FIM 1 μM): 220%
Change in Emmax for FIM at a particular D-glucose concentration ([2]; 40 mM D-glucose, GBM15 50 μM, FIM 0.5 μM): 265%
Change in Emmax for FIM at a particular D-glucose concentration ([2]; 40 mM D-glucose, GBM15 50 μM, FIM 5 μM): 205%
Change in Emmax for FIM at a particular D-glucose concentration ([2]; 40 mM D-glucose, GBM15 100 μM, FIM 1 μM): 220%
Change in Emmax for FIM at a particular D-glucose concentration ([2]; 40 mM D-glucose, GBM15 200 μM, FIM 2 μM): 200%
Change in Emmax for FIM at a particular D-glucose concentration ([2]; 40 mM D-glucose, GBM15 200 μM, FIM 5 μM): 175%
Change in Emmax for FIM at a particular D-glucose concentration ([2]; 40 mM D-glucose, GBM15 200 μM, FIM 10 μM): 130%
Change in Emmax for FIM at a particular D-glucose concentration ([2]; 60 mM D-glucose, GBM15 50 μM, FIM 0.5 μM): 310%
Change in Emmax for FIM at a particular D-glucose concentration ([2]; 60 mM D-glucose, GBM15 50 μM, FIM 5 μM): 225%
Change in Emmax for FIM at a particular D-glucose concentration ([2]; 60 mM D-glucose, GBM15 200 μM, FIM 2 μM): 215%
Change in Emmax for FIM at a particular D-glucose concentration ([2]; 60 mM D-glucose, GBM15 200 μM, FIM 5 μM): 190%
Change in Emmax for FIM at a particular D-glucose concentration ([2]; 60 mM D-glucose, GBM15 200 μM, FIM 10 μM): 160%
Change in Emmax for FIM at a particular D-glucose concentration ([2]; 80 mM D-glucose, GBM15 50 μM, FIM 5 μM): 235%
Change in Emmax for FIM at a particular D-glucose concentration ([2]; 80 mM D-glucose, GBM15 200 μM, FIM 5 μM): 200%
Change in Emmax for FIM at a particular D-glucose concentration ([2]; 80 mM D-glucose, GBM15 200 μM, FIM 10 μM): 170%
